# Reference: patent publication US7452688B2, “Transformed cell with enhanced sensitivity to antifungal compound and use thereof” (Sumitomo Chemical Company, Limited, priority 2002, dated 2008)
# Tests used:
# Format in all cases: cell-based, Saccharomyces cerevisiae
# [1] = tested on: transformed budding yeast AH22-StOS1; experiment: Antifungal compound sensitivity test, transformed budding yeast AH22-StOS1 (Example 16); details: 30° C. 28 hours, relative value in percentage
# Method: (§1) The transformed budding yeast AH22-StOS1 prepared in Example 15 was cultured while shaking at 30° C. for 18 hours in a Glu-Leu medium. As a control, the AH22 strain was similarly cultured while shaking at 30° C. for 18 hours in a Glu medium. The absorbance at 600 nm of each grown transformed budding yeast in a cell suspension was measured, and cell suspension diluted with sterilized distilled water to the absorbance of 0.1 was prepared. Further, a cell suspension in which the aforementioned cell suspension of the transformed budding yeast AH22-StOS1 was diluted 50-fold with a Glu-Leu medium, and a cell suspension in which the aforementioned cell suspension of the AH22 strain was diluted 50-fold with a Glu medium were prepared.
# (§2) A solution in which each of Compounds (1) to (3) was dissolved in dimethylsulfoxide (DMSO) to the concentration of 6 ppm, a solution in which each of Compounds (4) and (5) was dissolved in dimethylsulfoxide (DMSO) to the concentration of 2000 ppm, and a solution in which Compounds (6) and (7) was dissolved in dimethylsulfoxide (DMSO) to the concentration of 20 ppm were prepared, and two microplates were prepared in which each 1.0 μL per well of the Compound solution and DMSO as a control were dispensed. In one microplate among them, each 100 μL of cell suspensions of the transformed budding yeast AH22-StOS1 which had been prepared by dilution as described above was dispensed, and cultured by allowing to stand at 30° C. for 28 hours. In another microplate, each 100 μL of cell suspensions of the control yeast AH22 strain which had been prepared by dilution as described above was dispensed, and cultured by allowing to stand at 30° C. for 24.5 hours. After culturing, the absorbance at 600 nm of each well was measured with a microplate reader.
# (§3) A degree of growth of the transformed budding yeast is expressed as a relative value in percentage, letting the absorbance at 600 nm at the concentration of the Compound of 0 ppm to be 100. It was confirmed that an inhibiting degree of growth of the transformed budding yeast TM182-StOS1 by each test substance was grater than an inhibiting degree of growth of the transformed budding yeast AH22-StOS1 by each test substance, and the transformed budding yeast TM182-StOS1 was a transformed cell with the enhanced sensitivity to an antifungal compound as compared with the transformed budding yeast AH22-StOS1.
# AH22 strain = experiment: Antifungal compound sensitivity test, control yeast AH22 strain (Example 19); details: 30° C. 24.8 hours, relative value in percentage
# Method: as §1, with “AH22-RsOS1” for “AH22-StOS1”, “18” for “15”
# as §2, with “to” for “to (3) was dissolved in dimethylsulfoxide (DMSO) to the concentration of 6 ppm, a solution in which each of Compounds (4) and”, “600” for “2000”, “60” for “20”, “AH22-RsOS1” for “AH22-StOS1”, “29.8” for “28”, “24.8” for “24.5”
# as §3, with “TM182-RsOS1” for “TM182-StOS1”, “AH22-RsOS1” for “AH22-StOS1”, “AH22-RsOS1.” for “AH22-StOS1.”
# [2] = tested on: transformed budding yeast AH22-RsOS1; experiment: Antifungal compound sensitivity test, transformed budding yeast AH22-RsOS1 (Example 19); details: 30° C. 29.8 hours, relative value in percentage
# Method: as §1, with “AH22-RsOS1” for “AH22-StOS1”, “18” for “15”
# as §2, with “to” for “to (3) was dissolved in dimethylsulfoxide (DMSO) to the concentration of 6 ppm, a solution in which each of Compounds (4) and”, “600” for “2000”, “60” for “20”, “AH22-RsOS1” for “AH22-StOS1”, “29.8” for “28”, “24.8” for “24.5”
# as §3, with “TM182-RsOS1” for “TM182-StOS1”, “AH22-RsOS1” for “AH22-StOS1”, “AH22-RsOS1.” for “AH22-StOS1.”
Structure (SMILES),Degree of growth of budding yeast AH22-StOS1 Glu-Leu medium ([1]; final concentration 0.6 ppm) [%],Degree of growth of budding yeast AH22 Glu medium (AH22 strain; final concentration 6.0 ppm) [%],Degree of growth of budding yeast AH22-RsOS1 Glu-Leu medium ([2]; final concentration 6.0 ppm) [%],Degree of growth of budding yeast AH22-StOS1 Glu-Leu medium ([1]; final concentration 20 ppm) [%],Degree of growth of budding yeast AH22-StOS1 Glu-Leu medium ([1]; final concentration 0.2 ppm) [%],Degree of growth of budding yeast AH22 Glu medium (AH22 strain; final concentration 0.6 ppm) [%],Degree of growth of budding yeast AH22-RsOS1 Glu-Leu medium ([2]; final concentration 0.6 ppm) [%]
"CC12CC1(C)C(=O)N(c1cc(Cl)cc(Cl)c1)C2=O (stereo not drawn) [Compound (1), Procymidone]",101,88,103,–,–,–,–
"CC(C)NC(=O)N1CC(=O)N(c2cc(Cl)cc(Cl)c2)C1=O [Compound (2), Iprodione]",100,92,101,–,–,–,–
"C=CC1(C)OC(=O)N(c2cc(Cl)cc(Cl)c2)C1=O (stereo not drawn) [Compound (3), Vinclozolin]",98,82,101,–,–,–,–
"O=[N+]([O-])c1c(Cl)c(Cl)c(Cl)c(Cl)c1Cl [Compound (4), Quintozene]",–,83,89,91,–,–,–
"COP(=S)(OC)Oc1c(Cl)cc(C)cc1Cl [Compound (5), Tolclofos-methyl]",–,78,85,76,–,–,–
"N#Cc1c[nH]cc1-c1cccc2c1OC(F)(F)O2 [Compound (6), Fludioxonil]",–,–,–,–,93,79,79
"N#Cc1c[nH]cc1-c1cccc(Cl)c1Cl [Compound (7), Fenpiclonil]",–,–,–,–,91,85,101
